Reference: PubChem BioAssay AID248 (DTP/NCI, 2004)
Toxic doses and inconclusive results are not listed. Cut-off read from the data, not from the text of the source: active = T/C of 150% or more; inactive = T/C below 125%.

Tested on: L1210 leukemia ip in BDF1 mice, survival T/C
Assay: NCI In Vivo Anticancer Drug Screen. Data for tumor model L1210 Leukemia (intraperitoneal) in B6D2F1 (BDF1) mice
Settings: endpoint: mean survival time, higher = longer survival
Summary of the method: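 Tumor cells were implanted, animals were treated, and survival was followed. The result divides the treated measurement by the vehicle-control measurement.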

[1] = dose: 100.0 mg/kg/injection, schedule: Q04DX003 (ip), vehicle: Klucel (hydroxypropylcellulose) (HPC)
[2] = dose: 200.0 mg/kg/injection, schedule: Q04DX003 (ip), vehicle: Klucel (hydroxypropylcellulose) (HPC)
[3] = dose: 400.0 mg/kg/injection, schedule: Q04DX003 (ip), vehicle: Klucel (hydroxypropylcellulose) (HPC)
[4] = dose: 100.0 mg/kg/injection, schedule: Q01DX001 (ip), vehicle: saline
[5] = dose: 200.0 mg/kg/injection, schedule: Q01DX001 (ip), vehicle: saline
[6] = dose: 400.0 mg/kg/injection, schedule: Q01DX001 (ip), vehicle: saline
[7] = dose: 100.0 mg/kg/injection, schedule: Q01DX005 (ip), vehicle: saline
[8] = dose: 200.0 mg/kg/injection, schedule: Q01DX005 (ip), vehicle: saline
[9] = dose: 50.0 mg/kg/injection, schedule: Q04DX003 (ip), vehicle: Klucel (hydroxypropylcellulose) (HPC)
[10] = dose: 50.0 mg/kg/injection, schedule: Q01DX001 (ip), vehicle: carboxymethylcellulose (CMC)
[11] = dose: 100.0 mg/kg/injection, schedule: Q04DX003 (ip), vehicle: saline with Tween-80
[12] = dose: 400.0 mg/kg/injection, schedule: Q04DX003 (ip), vehicle: saline with Tween-80
[13] = dose: 100.0 mg/kg/injection, schedule: Q01DX009 (ip), vehicle: saline with Tween-80
[14] = dose: 200.0 mg/kg/injection, schedule: Q01DX009 (ip), vehicle: saline with Tween-80
[15] = dose: 100.0 mg/kg/injection, schedule: Q01DX009 (ip), vehicle: Klucel (hydroxypropylcellulose) (HPC)
[16] = dose: 200.0 mg/kg/injection, schedule: Q01DX009 (ip), vehicle: Klucel (hydroxypropylcellulose) (HPC)
[17] = dose: 400.0 mg/kg/injection, schedule: Q01DX009 (ip), vehicle: Klucel (hydroxypropylcellulose) (HPC)
[18] = dose: 100.0 mg/kg/injection, schedule: Q01DX009 (ip), vehicle: saline
[19] = dose: 200.0 mg/kg/injection, schedule: Q01DX009 (ip), vehicle: saline
[20] = dose: 400.0 mg/kg/injection, schedule: Q01DX009 (ip), vehicle: saline
[21] = dose: 50.0 mg/kg/injection, schedule: Q01DX009 (ip), vehicle: Klucel (hydroxypropylcellulose) (HPC)
[22] = dose: 200.0 mg/kg/injection, schedule: Q04DX003 (ip), vehicle: saline with Tween-80

Measured: T/C

CCCCCCCCCCCCCCCCc1ccc(CCCC(=O)O)cc1
inactive: [1] 91 % of control | [2] 92 % of control | [3] 91 % of control

Oc1ccc2ccccc2c1/C=N/N1CCN(/N=C/c2c(O)ccc3ccccc23)CC1
inactive: [4] 104 % of control | [5] 96 % of control | [6] 90 % of control

C/C=C/CS(=O)(=O)Cc1ccccc1
inactive: dose: 100.0 mg/kg/injection, schedule: Q01DX001 (ip), vehicle: saline with Tween-80 103 % of control | dose: 200.0 mg/kg/injection, schedule: Q01DX001 (ip), vehicle: saline with Tween-80 95 % of control | dose: 400.0 mg/kg/injection, schedule: Q01DX001 (ip), vehicle: saline with Tween-80 103 % of control

CC1(C)OC2COC(c3[nH]nc(C(N)=O)c3C(=O)N=[N+]=[N-])C2O1 (configuration not stated)
inactive: [7] 101 % of control | [8] 101 % of control

CC(=O)Oc1c(C2CCCCC2)cc([N+](=O)[O-])cc1[N+](=O)[O-]
inactive: [1] 94 % of control | [2] 101 % of control

CC(C)(C)C(O)C1CCC(C(O)C(C)(C)C)S1(=O)=O (configuration not stated)
inactive: [9] 100 % of control | [1] 104 % of control | [2] 98 % of control | [3] 100 % of control

[Cu+2].[O-]c1ccc(Br)c2cccnc12.[O-]c1ccc(Br)c2cccnc12
inactive: dose: 25.0 mg/kg/injection, schedule: Q01DX001 (ip), vehicle: carboxymethylcellulose (CMC) 103 % of control | [10] 105 % of control

CCCCCCCCCCCCCCCCCCNC(=O)Nc1ccccc1CC
inactive: dose: 100.0 mg/kg/injection, schedule: Q01DX009 (sc), vehicle: olive oil, sesame oil, peanut oil 104 % of control | dose: 100.0 mg/kg/injection, schedule: Q04DX003 (sc), vehicle: olive oil, sesame oil, peanut oil 98 % of control | dose: 200.0 mg/kg/injection, schedule: Q01DX009 (sc), vehicle: olive oil, sesame oil, peanut oil 104 % of control | dose: 200.0 mg/kg/injection, schedule: Q04DX003 (sc), vehicle: olive oil, sesame oil, peanut oil 94 % of control | dose: 400.0 mg/kg/injection, schedule: Q01DX009 (sc), vehicle: olive oil, sesame oil, peanut oil 106 % of control | dose: 400.0 mg/kg/injection, schedule: Q04DX003 (sc), vehicle: olive oil, sesame oil, peanut oil 109 % of control

c1ccc(COc2ccc(Cc3nccc4ccccc34)cc2OCc2ccccc2)cc1
inactive: [11] 88 % of control | [12] 88 % of control

COC(=N)c1ccc(Cl)cc1
inactive: [13] 88 % of control | [14] 93 % of control

COc1cc([N+](=O)[O-])c(C)cc1Br
inactive: [4] 105 % of control | dose: 100.0 mg/kg/injection, schedule: Q04DX003 (ip), vehicle: acetone 98 % of control | [5] 107 % of control | dose: 200.0 mg/kg/injection, schedule: Q04DX003 (ip), vehicle: acetone 100 % of control | [6] 107 % of control | dose: 400.0 mg/kg/injection, schedule: Q04DX003 (ip), vehicle: acetone 95 % of control

CC(=O)Nc1ccc(OCCOC(=O)Nc2ccccc2C(F)(F)F)cc1
inactive: [15] 91 % of control | [16] 105 % of control | [17] 93 % of control

O=c1n(-c2ccccc2)c(=O)n2n1C1/C=C\C=C/C2C2CCC21 (configuration not stated)
inactive: dose: 12.5 mg/kg/injection, schedule: Q01DX009 (ip), vehicle: saline with Tween-80 92 % of control | dose: 12.5 mg/kg/injection, schedule: Q04DX003 (ip), vehicle: saline with Tween-80 100 % of control | dose: 25.0 mg/kg/injection, schedule: Q01DX009 (ip), vehicle: saline with Tween-80 95 % of control | dose: 25.0 mg/kg/injection, schedule: Q04DX003 (ip), vehicle: saline with Tween-80 95 % of control | dose: 50.0 mg/kg/injection, schedule: Q04DX003 (ip), vehicle: saline with Tween-80 87 % of control

NC1=NC2OC(CO)C(O)C2O1 (configuration not stated)
inactive: [18] 104 % of control | [1] 100 % of control | [19] 95 % of control | [2] 95 % of control | [20] 101 % of control | [3] 97 % of control

CN1C(CCl)Nc2cc(Cl)c(S(N)(=O)=O)cc2S1(=O)=O (configuration not stated)
inactive: [4] 95 % of control | [5] 90 % of control | [6] 96 % of control

COc1cc(OC)cc(C(=O)N2CC2)c1
inactive: dose: 25.0 mg/kg/injection, schedule: Q01DX009 (ip), vehicle: water 100 % of control | dose: 50.0 mg/kg/injection, schedule: Q01DX009 (ip), vehicle: water 88 % of control

Cc1cccnc1NC(=O)/C=C/C(=O)O
inactive: dose: 12.5 mg/kg/injection, schedule: Q01DX009 (ip), vehicle: saline 94 % of control | dose: 25.0 mg/kg/injection, schedule: Q01DX009 (ip), vehicle: saline 100 % of control | dose: 50.0 mg/kg/injection, schedule: Q01DX009 (ip), vehicle: saline 94 % of control

COC(=O)NCC1OC(n2cnc3c(N)ncnc32)C(O)C1O (configuration not stated)
inactive: [7] 92 % of control | [8] 94 % of control

c1ccc([CH2][Sn]([c]2ccccc2)([c]2ccccc2)[c]2ccccc2)cc1
inactive: [21] 100 % of control | [15] 104 % of control | [1] 101 % of control | [16] 98 % of control | [2] 98 % of control | [3] 101 % of control

CC(=O)NCC1CCCCC1
inactive: dose: 25.0 mg/kg/injection, schedule: Q01DX009 (ip), vehicle: Klucel (hydroxypropylcellulose) (HPC) 98 % of control | dose: 25.0 mg/kg/injection, schedule: Q04DX003 (ip), vehicle: Klucel (hydroxypropylcellulose) (HPC) 100 % of control | [21] 92 % of control | [9] 102 % of control | [15] 110 % of control | [1] 105 % of control

CCO/C(C)=N/OC(=O)c1ccccc1
inactive: dose: 100.0 mg/kg/injection, schedule: Q04DX002 (ip), vehicle: Klucel (hydroxypropylcellulose) (HPC) 94 % of control | dose: 200.0 mg/kg/injection, schedule: Q04DX002 (ip), vehicle: Klucel (hydroxypropylcellulose) (HPC) 110 % of control | dose: 400.0 mg/kg/injection, schedule: Q04DX002 (ip), vehicle: Klucel (hydroxypropylcellulose) (HPC) 94 % of control

COc1ccc(NC(=O)Oc2ccc(NC(C)=O)cc2)c(OC)c1
inactive: [15] 95 % of control | [16] 97 % of control | [17] 92 % of control

C=C(Br)CNC(=O)NCCCl
inactive: dose: 100.0 mg/kg/injection, schedule: Q01DX001 (ip), vehicle: Klucel (hydroxypropylcellulose) (HPC) 90 % of control | dose: 200.0 mg/kg/injection, schedule: Q01DX001 (ip), vehicle: Klucel (hydroxypropylcellulose) (HPC) 96 % of control

CC(N)CSC(=O)c1ccccc1 (configuration not stated)
inactive: [11] 100 % of control | [22] 100 % of control | [12] 94 % of control

CC(C)c1cc(C(C)C)c(C(=O)Oc2c(Br)cc(Br)cc2Br)c(C(C)C)c1
inactive: [13] 95 % of control | [11] 98 % of control | [14] 92 % of control | [22] 93 % of control | [12] 90 % of control

c1ccc(CC(Cc2ccccc2)CN2CCCC2)cc1
inactive: [18] 94 % of control | dose: 100.0 mg/kg/injection, schedule: Q04DX003 (ip), vehicle: saline 95 % of control | [19] 102 % of control | dose: 200.0 mg/kg/injection, schedule: Q04DX003 (ip), vehicle: saline 94 % of control | [20] 103 % of control | dose: 400.0 mg/kg/injection, schedule: Q04DX003 (ip), vehicle: saline 89 % of control

CN(C)Cc1cc(C(F)(F)F)ccc1C(O)(c1ccccc1)c1ccccc1
inactive: [10] 110 % of control | dose: 100.0 mg/kg/injection, schedule: Q01DX001 (ip), vehicle: carboxymethylcellulose (CMC) 101 % of control | dose: 200.0 mg/kg/injection, schedule: Q01DX001 (ip), vehicle: carboxymethylcellulose (CMC) 101 % of control | dose: 400.0 mg/kg/injection, schedule: Q01DX001 (ip), vehicle: carboxymethylcellulose (CMC) 98 % of control
